# Test results published in patent publication US7419657B2, “Treatment of atherosclerotic disorders” (priority 2001, dated 2008).
# Several values for one entry are separate records, joined by “and”; a condition that tells them apart may be missing. Identical values can stand only once. Counter-ions that a name gives are not always drawn. Like-named read-outs stand apart in the source and are kept apart here. Marks after values point to notes of the source that are not given here.
# What was measured:
# [1] = system: anti-Chlamydia abzymes; experiment: Abzyme activity in angina patients reporting aspirin intake (Example 10); type: in vivo, human; settings: for abzyme activity, + aspirin: individuals
# [2] = system: anti-Chlamydia abzymes; experiment: Anti-abzyme therapy trial in ischaemic heart disease: serum abzyme activity; type: in vivo, human
# [3] = system: anti-Chlamydia abzymes; experiment: Serum abzyme activity in patients taking aspirin (Example 6); type: in vivo, human
# [4] = system: anti-Chlamydia abzymes; type: biochemical, human; design: key to In-vitro Inhibition: + = inhibition; − = no inhibition
# [5] = system: anti-Chlamydia IgG; settings: best of previously undertaken trials with azithromycin; cited from earlier work
# [6] = Anti-abzyme therapy trial: modified Rose-Blackburn Questionnaire; type: in vivo, human; design: Score by modified Rose-Blackburn Questionnaire, 60 days after start of the treatment / Rose Blackthorn Score Day 60: scale not given here
# From the text: The progression of the clinical condition of the patients was monitored by the use of the modified Bruce Protocol for treadmill exercise/stress ECG testing and on the Rose-Blackburn Questionnaire (Cardiovascular Survey Methods. WHO, Geneva, 1968).
# [7] = system: anti-Chlamydia abzymes; experiment: Serum abzyme activity in stable angina patients treated with azithromycin with or without aspirin (Example 8); type: in vivo, human; settings: azithromycin 500 mg once per day
# [8] = system: anti-Chlamydia IgG; experiment: Anti-abzyme therapy trial: anti-Chlamydia IgG; type: in vivo, human
# [9] = system: lesion IgG; experiment: LDL peroxidation by lesion IgG with tested antioxidants; type: biochemical, human
# [10] = system: Chlamydia; type: biochemical, Chlamydia pneumoniae or Chlamydia Psittaci
# [11] = system: human plasma; experiment: In vitro kaolin clotting of plasma with atheroma IgG abzymes; settings: pH 6.2
# [12] = patient F, Silent Myocardial Ischaemia
# [13] = 10 μM of each Me2+-binding agent
# [14] = 10 μM of each Me2+-binding agent, control 24.3
# [15] = individual IHD patients negative for anti-Chlamydia IgG
# [16] = Therapy Group A individual IHD patients, azithromycin 500 mg daily
# [17] = Therapy Group A mean, before treatment 47.5
# [18] = group mean, before treatment 45.9
# [19] = individual stable angina patients
# [20] = LDL 480 μg of protein, +0.1 M antioxidant, control 0.49 ± 0.023
compound,measurement,setting,value
"CC(=O)Oc1ccccc1C(=O)O [Aspirin, acetylsalicylic acid]","abzyme activity, + aspirin",[1]; stable angina class I,5 and 45 and 0 (3×) and 10
same,"abzyme activity, + aspirin",[1]; stable angina class II,5 (4×) and 10 (2×) and 0 (4×) and 25 and 22.5 and 3.3 and 16.7 and 30
same,"abzyme activity, + aspirin",[1]; stable angina class III,0 (3×) and 45 and 5 and 35 and 15 and 30 and 105 and 20
same,"abzyme activity, + aspirin",[1]; unstable angina (IV),130 and 70 and 0 and 37 and 90 and 100 and 180
same,"individuals positive for abzymes, + aspirin","[1]; stable angina class I, 1/6",17%
same,"abzyme activity, + aspirin, group mean","[1]; stable angina class I, n = 6, without aspirin 30.0",10.0
same,"individuals positive for abzymes, + aspirin","[1]; stable angina class II, 4/15",27%
same,"abzyme activity, + aspirin, group mean","[1]; stable angina class II, n = 15, without aspirin 32.2",9.2
same,"individuals positive for abzymes, + aspirin","[1]; stable angina class III, 6/10",60%
same,"abzyme activity, + aspirin, group mean","[1]; stable angina class III, n = 10, without aspirin 56.0",25.5
same,"individuals positive for abzymes, + aspirin","[1]; unstable angina (IV), 6/7",86%
same,"abzyme activity, + aspirin, group mean","[1]; unstable angina (IV), n = 7, without aspirin 119",86.7
same,"Anti-Chlamydia abzyme activity, 60 days after the start of treatment","[2]; Therapy Group D individual IHD patients, aspirin 250 mg daily, before 103, 253",63 μM MDA/ml and 103 μM MDA/ml
same,"Anti-Chlamydia abzyme activity, 60 days after the start of treatment","[2]; Therapy Group D mean, before treatment 178",83.2 μM MDA/ml
same,"Level of activity of anti-Chlamydia abzymes, 7 days after starting to take 250 mg of aspirin daily","[3]; individual patients with CHD, before aspirin 45, 100, 45",undetectably low level and 20 μM MDA/ml and 0 μM MDA/ml
same,inhibition of the abzyme activity,"[3]; one CHD patient, 250 mg aspirin daily, after a week",5 fold
same,"Level of activity of anti-Chlamydia abzymes, 7 days after re-starting to take 250 mg aspirin daily",[3]; [12],20 μM MDA/ml
same,"Level of activity of anti-Chlamydia abzymes, after stopping taking aspirin for 7 days",[3]; [12],65 μM MDA/ml
same,"Level of activity of anti-Chlamydia abzymes, aspirin intake 250 mg daily","[3]; patient F, Silent Myocardial Ischaemia, regular intake",10 μM MDA/ml
same,In-vitro Inhibition,[4],+
same,Result (inhibition of anti-Chlamydia abzymes),[4]; [13],Positive
same,Lipid oxidising activity of anti-Chlamydia abzymes,[4]; [14],6.2 μM MDA/ml
CC[C@H]1OC(=O)[C@H](C)[C@@H](O[C@H]2C[C@@](C)(OC)[C@@H](O)[C@H](C)O2)[C@H](C)[C@@H](O[C@@H]2O[C@H](C)C[C@H](N(C)C)[C@H]2O)[C@](C)(O)C[C@@H](C)CN(C)[C@H](C)[C@@H](O)[C@]1(C)O [Azithromycin],treated patients with a reduction of titers of anti-Chlamydia antibodies,[5],43%
same,"Score by modified Rose-Blackburn Questionnaire, 60 days after start of the treatment",[6]; group mean,14.4 ± 1.14
same,Rose Blackthorn Score Day 60,[6]; [15],18 and 19 and 10 and 13
same,"Score by modified Rose-Blackburn Questionnaire, 60 days after start of the treatment",[6]; individual patients,13 and 16 and 18 and 15 (2×) and 8 and 11 and 17 (2×) and 19 and 10
same,"Clinical Status modified Rose G., Blackburn H Questionnaire, 60 days after treatment","[6]; summary, group mean, PCG 21.5 ± 1.19",14.4 ± 1.14
same,adverse reactions,"human, in vivo",No adverse reactions
same,tablets of nitroglycerine daily after 15 days of treatment,"patient 5, before treatment 10 tablets daily",5 tablets of nitroglycerine
same,"Anti-Chlamydia abzyme activity, 15 days after the start of treatment",[2]; [16],6.7 μM MDA/ml (3×) and 0 μM MDA/ml (3×) and 60* μM MDA/ml and 8.3 μM MDA/ml and 33 μM MDA/ml and 75* μM MDA/ml and 52* μM MDA/ml
same,"Anti-Chlamydia abzyme activity, 30 days after the start of treatment",[2]; [16],78** μM MDA/ml and 0 μM MDA/ml (3×) and 37* μM MDA/ml and 28** μM MDA/ml and 3.3 μM MDA/ml (2×) and 10 μM MDA/ml (2×) and 78* μM MDA/ml
same,"Anti-Chlamydia abzyme activity, 45 days after the start of treatment",[2]; [16],17 μM MDA/ml and 0 μM MDA/ml (5×) and 20* μM MDA/ml and 43* μM MDA/ml and 3.3 μM MDA/ml (2×) and 5.0 μM MDA/ml
same,"Anti-Chlamydia abzyme activity, 60 days after the start of treatment",[2]; [16],3.3 μM MDA/ml and 6.7 μM MDA/ml (2×) and 0 μM MDA/ml (7×) and 0.5 μM MDA/ml
same,"Anti-Chlamydia abzyme activity, 15 days after the start of treatment",[2]; [17],22.5 μM MDA/ml
same,"Anti-Chlamydia abzyme activity, 30 days after the start of treatment",[2]; [17],22.5 μM MDA/ml
same,"Anti-Chlamydia abzyme activity, 45 days after the start of treatment",[2]; [17],7.4 μM MDA/ml
same,"Anti-Chlamydia abzyme activity, 60 days after the start of treatment",[2]; [17],1.6 μM MDA/ml
same,patients with no changes in the abzyme activity after 15 days,"[2]; Therapy Group A, 3 out of 11",27%
same,Abzyme activity Day 60,[2]; [15],6.7 (2×) and 3.3 and 0
same,"Anti-Chlamydia abzymes activity, 60 days after treatment","[2]; summary, group mean, PCG 55.3 ± 6.18, Norm 6.36 ± 1.14",1.6 ± 0.89 μM/MDA/ml
same,"Anti-Chlamydia abzyme activity, 15 days after the start of the treatment",[7]; [18],19.6 μM MDA/ml
same,"Anti-Chlamydia abzyme activity, 30 days after the start of the treatment",[7]; [18],17.7 μM MDA/ml
same,"Anti-Chlamydia abzyme activity, 15 days after the start of the treatment",[7]; [19],60 μM MDA/ml and 0 μM MDA/ml (3×) and 8.3 μM MDA/ml and 6.7 μM MDA/ml (3×) and 33 μM MDA/ml and 75 μM MDA/ml
same,"Anti-Chlamydia abzyme activity, 30 days after the start of the treatment",[7]; [19],37 μM MDA/ml and 0 μM MDA/ml (3×) and 28 μM MDA/ml and 3.3 μM MDA/ml (2×) and 10 μM MDA/ml and 78 μM MDA/ml
same,Lipid oxidising activity of anti-Chlamydia abzymes,"[4]; in DMSO, 1 μM, control 61",7 μM MDA/ml
same,Lipid oxidising activity of anti-Chlamydia abzymes,"[4]; in DMSO, 5 μM, control 61",0 μM MDA/ml
same,Lipid oxidising activity of anti-Chlamydia abzymes,"[4]; suspension in water, 1 μM, control 61",19 μM MDA/ml
same,Lipid oxidising activity of anti-Chlamydia abzymes,"[4]; suspension in water, 2 μM, control 61",0 μM MDA/ml
same,Lipid oxidising activity of anti-Chlamydia abzymes,"[4]; suspension in water, 10 μM, control 61",0 μM MDA/ml
same,Lipid oxidising activity of anti-Chlamydia abzymes,"[4]; suspension in water, 20 μM, control 61",0 μM MDA/ml
same,"Anti-Chlamydia IgG, 60 days after treatment","[8]; summary, group value, before treatment 43.6, 48.5, 52.0 (A, C, B), immuno-fluorescent assay",0 (titers)^−1
same,presence of anti-Chlamydia IgG after the intensive regimen,[8]; therapy trial,totally eliminated
C[S+](C)[O-] [DMSO],Level of MDA production by 0.82 μg of lesion IgG,"[9]; LDL 480 μg of protein, +1% antioxidant, control 0.49 ± 0.023",0 µM
same,development of lipid oxidation reaction,[10],completely abrogated
O=C(O)CN(CCN(CC(=O)O)CC(=O)O)CCN(CC(=O)O)CC(=O)O [DTPA],In-vitro Inhibition,[4],−
same,Result (inhibition of anti-Chlamydia abzymes),[4]; [13],Negative
same,Lipid oxidising activity of anti-Chlamydia abzymes,[4]; [14],45.2 μM MDA/ml
O=[N+]([O-])OCC(CO[N+](=O)[O-])O[N+](=O)[O-] [Glyceryl Trinitrate],Anti-Abzyme activity,"[4]; drug 4.4 μM, control 21.7",0 μM MDA/ml
same,Anti-Abzyme activity,"[4]; drug 22 μM, control 21.7",0 μM MDA/ml
same,Anti-Abzyme activity,"[4]; drug 44 μM, control 21.7",0 μM MDA/ml
same,Anti-Abzyme activity,"[4]; drug 220 μM, control 21.7",0 μM MDA/ml
O=[N+]([O-])O[C@H]1CO[C@H]2[C@@H]1OC[C@H]2O[N+](=O)[O-] [Isosorbide Dinitrate],Anti-Abzyme activity,"[4]; drug 42 μM, control 21.7",0 μM MDA/ml
same,Anti-Abzyme activity,"[4]; drug 211 μM, control 21.7",0 μM MDA/ml
CCC[C@@H]1C[C@@H](C(=O)N[C@@H]([C@H]2O[C@H](SC)[C@H](O)[C@@H](O)[C@H]2O)[C@@H](C)O)N(C)C1 [Lincomycin Hydrochloride],Anti-Abzyme activity,"[4]; drug 6.5 μM, control 21.7",28.5 μM MDA/ml
same,Anti-Abzyme activity,"[4]; drug 13 μM, control 21.7",30.3 μM MDA/ml
"[N-]=[N+]=[N-].[Na+] [NaN1, sodium azide]",abzyme effect on the plasma clotting after pre-incubation of the abzymes with inhibitor,[11],reduction
same,In-vitro Inhibition,[4],+
same,Lipid oxidising activity of anti-Chlamydia abzymes,[4],0 μM MDA/ml
same,Result (inhibition of anti-Chlamydia abzymes),[4],Positive
CC(C)(S)[C@@H](N)C(=O)O [Penicillamine],In-vitro Inhibition,[4],+
same,Result (inhibition of anti-Chlamydia abzymes),[4]; [13],Positive
same,Lipid oxidising activity of anti-Chlamydia abzymes,[4]; [14],0 μM MDA/ml
O=C(O)c1ccccn1 [Picolinic acid],In-vitro Inhibition,[4],+
same,Result (inhibition of anti-Chlamydia abzymes),[4]; [13],Positive
same,Lipid oxidising activity of anti-Chlamydia abzymes,[4]; [14],0 μM MDA/ml
CC(C)NCC(O)COc1cccc2ccccc12 (stereo not shown) [Propranolol Hydrochloride],Anti-Abzyme activity,[4]; Hydrochloride,21.3 μM MDA/ml and 18.3 μM MDA/ml
CCCCCCCCCCCCOS(=O)(=O)[O-].[Na+] [SDS],lipid oxidising reaction in the test system,[10],no lipid oxidising reaction
N.N.O=S(=O)(O)O [ammonium sulphate],lipid oxidising reaction in the test system,[10],no lipid oxidising reaction
O=C1O[C@H]([C@@H](O)CO)C(O)=C1O [ascorbic acid],Level of MDA production by 0.82 μg of lesion IgG,[9],0 µM
O=C(O)c1ccccc1 [benzole acid],Level of MDA production by 0.82 μg of lesion IgG,[9]; [20],0 µM
C=O [formalin],lipid oxidising reaction in the test system,[10],no lipid oxidising reaction
O=C[O-].[Na+] [sodium formate],Level of MDA production by 0.82 μg of lesion IgG,[9]; [20],0 µM
Cc1c(C)c2c(c(C)c1O)CC[C@@](C)(CCC[C@H](C)CCC[C@H](C)CCCC(C)C)O2 [α-Tocopherol],Lipid oxidising activity of anti-Chlamydia abzymes,"[4]; in DMSO, 1 μM, control 61",15 μM MDA/ml
same,Lipid oxidising activity of anti-Chlamydia abzymes,"[4]; in DMSO, 10 μM, control 61",0 μM MDA/ml
Heparin,Anti-Abzyme activity,"[4]; drug 0.1 mg/ml, control 21.7",19.7 μM MDA/ml
Igepal CA-630,development of lipid oxidation reaction,[10],completely abrogated
same,oxidation of the lipids in the bacteria by the extracted abzymes,[10],abolished
Nadroparin Calcium,Anti-Abzyme activity,"[4]; drug 95 UI, control 21.7",20.5 μM MDA/ml
same,Anti-Abzyme activity,"[4]; drug 465 UI, control 21.7",12.8 μM MDA/ml
Triton X-100,development of lipid oxidation reaction,[10],completely abrogated
same,oxidation of the lipids in the bacteria by the extracted abzymes,[10],abolished
